# Results taken from patent US20240246932A1 (Merck Sharp & Dohme LLC, priority 2021, published 2024).
# Target: human NaV 1.8 channels stably expressed in HEK 293 cells (Homo sapiens (Human), UniProt Q9Y5Y9)
# Assay: Nav1.8 Qube automated patch-clamp assay
# Type: cell-based
# Conditions: human NaV1.8 in HEK 293 cells, whole-cell voltage clamp, room temperature; read-out: IC50 values (nM) for Examples in the Nav1.8 Qube Assay
# In short: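 Whole-cell voltage clamp at room temperature on HEK293 cells; from −90 mV, a 10 s 1 Hz train of 20 ms pulses to 10 mV (repolarising to −67 mV) was applied. Peak currents at pulses 1 and 10 gave resting- and inactivated-state inhibition; IC50 fitted by Hill equation. Internal CsF/CsCl buffer.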
# Chain of human NaV 1.8 channels stably expressed in HEK 293 cells (Q9Y5Y9 whole entry): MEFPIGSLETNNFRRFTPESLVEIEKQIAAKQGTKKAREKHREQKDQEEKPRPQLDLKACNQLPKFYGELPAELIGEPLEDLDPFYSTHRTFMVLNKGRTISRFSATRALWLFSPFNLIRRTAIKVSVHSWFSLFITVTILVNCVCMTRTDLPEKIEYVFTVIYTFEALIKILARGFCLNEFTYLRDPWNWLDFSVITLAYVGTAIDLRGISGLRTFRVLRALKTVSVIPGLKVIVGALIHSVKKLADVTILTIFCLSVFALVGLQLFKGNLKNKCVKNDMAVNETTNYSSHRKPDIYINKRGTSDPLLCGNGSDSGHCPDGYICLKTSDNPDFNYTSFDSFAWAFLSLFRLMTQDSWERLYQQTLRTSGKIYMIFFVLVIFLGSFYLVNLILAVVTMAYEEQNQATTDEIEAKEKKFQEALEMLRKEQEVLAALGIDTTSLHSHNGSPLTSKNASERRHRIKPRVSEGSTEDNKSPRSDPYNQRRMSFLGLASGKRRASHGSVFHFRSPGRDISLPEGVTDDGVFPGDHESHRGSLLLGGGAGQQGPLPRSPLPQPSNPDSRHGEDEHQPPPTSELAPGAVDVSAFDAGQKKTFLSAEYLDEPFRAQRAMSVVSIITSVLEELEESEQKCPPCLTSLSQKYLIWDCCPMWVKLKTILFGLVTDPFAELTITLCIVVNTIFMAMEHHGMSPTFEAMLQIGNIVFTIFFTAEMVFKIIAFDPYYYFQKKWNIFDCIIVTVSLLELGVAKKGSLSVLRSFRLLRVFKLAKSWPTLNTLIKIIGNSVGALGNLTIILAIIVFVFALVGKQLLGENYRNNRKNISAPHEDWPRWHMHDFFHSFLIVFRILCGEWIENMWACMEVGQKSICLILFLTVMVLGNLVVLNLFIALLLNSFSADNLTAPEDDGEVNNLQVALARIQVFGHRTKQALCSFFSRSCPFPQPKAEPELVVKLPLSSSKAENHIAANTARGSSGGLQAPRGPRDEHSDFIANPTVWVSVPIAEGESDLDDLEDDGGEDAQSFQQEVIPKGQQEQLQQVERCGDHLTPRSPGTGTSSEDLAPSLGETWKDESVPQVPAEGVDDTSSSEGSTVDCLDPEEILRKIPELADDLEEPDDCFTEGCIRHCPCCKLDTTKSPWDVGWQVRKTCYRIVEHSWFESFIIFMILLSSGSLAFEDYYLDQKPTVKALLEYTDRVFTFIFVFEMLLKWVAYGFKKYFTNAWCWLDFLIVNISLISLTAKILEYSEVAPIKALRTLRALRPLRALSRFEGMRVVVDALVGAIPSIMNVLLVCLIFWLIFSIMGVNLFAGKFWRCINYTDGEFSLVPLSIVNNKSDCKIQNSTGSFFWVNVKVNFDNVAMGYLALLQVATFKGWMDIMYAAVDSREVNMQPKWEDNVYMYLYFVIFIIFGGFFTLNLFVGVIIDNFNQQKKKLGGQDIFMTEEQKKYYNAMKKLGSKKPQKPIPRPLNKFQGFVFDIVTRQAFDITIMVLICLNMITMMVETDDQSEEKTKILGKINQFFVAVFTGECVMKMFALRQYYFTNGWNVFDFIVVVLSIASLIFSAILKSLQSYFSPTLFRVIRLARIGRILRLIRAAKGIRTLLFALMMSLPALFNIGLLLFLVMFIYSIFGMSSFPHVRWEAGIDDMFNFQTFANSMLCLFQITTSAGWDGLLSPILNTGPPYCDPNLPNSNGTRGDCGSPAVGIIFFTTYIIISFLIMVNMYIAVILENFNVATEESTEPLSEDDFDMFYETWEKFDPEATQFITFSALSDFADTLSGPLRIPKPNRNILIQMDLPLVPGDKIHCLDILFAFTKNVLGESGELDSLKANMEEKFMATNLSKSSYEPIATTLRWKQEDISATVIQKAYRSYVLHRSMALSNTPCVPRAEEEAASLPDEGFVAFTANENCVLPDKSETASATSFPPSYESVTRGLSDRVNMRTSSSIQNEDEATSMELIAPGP
row,IC50,Structure (SMILES)
1,258 nM,"C[C@@H]1C(=O)NCCN1C(=O)NC(c1ccc(F)c(F)c1)c1ccc(F)c(C(F)(F)F)n1 (single isomer, unassigned) [Example 49A, (2R)-N-((R or S)-(3,4-difluorophenyl)(5-fluoro-6-(trifluoro-methyl)pyridin-2-yl)methyl)-2-methyl-3-oxopiperazine-1-carboxamide]"
2,73.7 nM,"C[C@@H]1C(=O)NCCN1C(=O)NC(c1ccc(OCC(F)(F)F)nc1)c1ccc(F)c(C(F)(F)F)n1 (single isomer, unassigned) [Example 50A, (2R)-N-((R or S)-(5-fluoro-6-(trifluoro-methyl)pyridin-2-yl)(6-(2,2,2-trifluoro-ethoxy)pyridin-3-yl)methyl)-2-methyl-3-oxopiperazine-1-carboxamide]"
3,8.55 nM,"C[C@@H]1C(=O)NCCN1C(=O)NC(c1ccc(OCC(F)(F)F)nc1)c1ccc(F)c(C(F)(F)F)n1 (single isomer, unassigned) [Example 50B, (2R)-N-((S or R)-(5-fluoro-6-(trifluoro-methyl)pyridin-2-yl)(6-(2,2,2-trifluoro-ethoxy)pyridin-3-yl)methyl)-2-methyl-3-oxopiperazine-1-carboxamide]"
4,129 nM,"C[C@@H]1C(=O)NCCN1C(=O)NC(c1ccc(OC(F)(F)F)nc1)c1ccc(F)c(C(F)(F)F)n1 (single isomer, unassigned) [Example 51A, (2R)-N-((R or S)-(5-fluoro-6-(trifluoromethyl)pyridin-2-yl)(6-(trifluoro-methoxy)pyridin-3-yl)methyl)-2-methyl-3-oxopiperazine-1-carboxamide]"
5,13.2 nM,"C[C@@H]1C(=O)NCCN1C(=O)NC(c1ccc(OC(F)(F)F)nc1)c1ccc(F)c(C(F)(F)F)n1 (single isomer, unassigned) [Example 51B, (2R)-N-((S or R)-(5-fluoro-6-(trifluoro-methyl)pyridin-2-yl)(6-(trifluoromethoxy)pyridin-3-yl)methyl)-2-methyl-3-oxopiperazine-1-carboxamide]"
6,5.79 nM,"C[C@@H]1C(=O)NCCN1C(=O)NC(c1ccc(Cl)c(C#N)c1)c1ccc(F)c(C(F)(F)F)n1 (single isomer, unassigned) [Example 52A, (2R)-N-((R or S)-(4-chloro-3-cyano-phenyl)(5-fluoro-6-(trifluoromethyl)pyridin-2-yl)methyl)-2-methyl-3-oxopiperazine-1-carboxamide]"
7,64.5 nM,"C[C@@H]1C(=O)NCCN1C(=O)NC(c1ccc(Cl)c(C#N)c1)c1ccc(F)c(C(F)(F)F)n1 (single isomer, unassigned) [Example 52B, (2R)-N-((S or R)-(4-chloro-3-cyano-phenyl)(5-fluoro-6-(trifluoromethyl)pyridin-2-yl)methyl)-2-methyl-3-oxopiperazine-1-carboxamide]"
8,68.9 nM,"C[C@@H]1C(=O)NCCN1C(=O)NC(c1ccc(Cl)c(F)c1)c1ccc(F)c(C(F)(F)F)n1 (single isomer, unassigned) [Example 53A, (2R)-N-((R or S)-(4-chloro-3-fluoro-phenyl)(5-fluoro-6-(trifluoromethyl)pyridin-2-yl)methyl)-2-methyl-3-oxopiperazine-1-carboxamide]"
9,1.38 nM,"C[C@@H]1C(=O)NCCN1C(=O)NC(c1ccc(Cl)c(F)c1)c1ccc(F)c(C(F)(F)F)n1 (single isomer, unassigned) [Example 53B, (2R)-N-((S or R)-(4-chloro-3-fluoro-phenyl)(5-fluoro-6-(trifluoromethyl)pyridin-2-yl)methyl)-2-methyl-3-oxopiperazine-1-carboxamide]"
10,285 nM,"O=C1CN(C(=O)NC(c2ccc(Cl)c(F)c2)c2ccc(F)c(C(F)(F)F)n2)CCN1 (single isomer, unassigned) [Example 54A, N-((R or S)-(4-chloro-3-fluorophenyl)(5-fluoro-6-(trifluoromethyl)pyridin-2-yl)methyl)-3-oxopiperazine-1-carboxamide]"
11,4.14 nM,"O=C1CN(C(=O)NC(c2ccc(Cl)c(F)c2)c2ccc(F)c(C(F)(F)F)n2)CCN1 (single isomer, unassigned) [Example 54B, N-((S or R)-(4-chloro-3-fluorophenyl)(5-fluoro-6-(trifluoromethyl)pyridin-2-yl)methyl)-3-oxopiperazine-1-carboxamide]"
12,2.68 nM,"C[C@@H]1C(=O)NCCN1C(=O)NC(c1ccc(OC(F)(F)F)cc1)c1ccc(F)c(C(F)(F)F)n1 (single isomer, unassigned) [Example 55A, (2R)-N-((R or S)-(5-fluoro-6-(trifluoro-methyl)pyridin-2-yl)(4-(trifluoromethoxy)phenyl)methyl)-2-methyl-3-oxopiperazine-1-carboxamide]"
13,15.7 nM,"C[C@@H]1C(=O)NCCN1C(=O)NC(c1ccc(OC(F)(F)F)cc1)c1ccc(F)c(C(F)(F)F)n1 (single isomer, unassigned) [Example 55B, (2R)-N-((S or R)-(5-fluoro-6-(trifluoro-methyl)pyridin-2-yl)(4-(trifluoromethoxy)phenyl)methyl)-2-methyl-3-oxopiperazine-1-carboxamide]"
14,11.7 nM,"C[C@@H]1C(=O)NCCN1C(=O)NC(c1ccc(OC(F)(F)F)c(F)c1)c1ccc(F)c(C(F)(F)F)n1 (single isomer, unassigned) [Example 56A, (2R)-N-((R or S)-(3-fluoro-4-(trifluoro-methoxy)phenyl)(5-fluoro-6-(trifluoro-methyl)pyridin-2-yl)methyl)-2-methyl-3-oxopiperazine-1-carboxamide]"
15,1.31 nM,"C[C@@H]1C(=O)NCCN1C(=O)NC(c1ccc(OC(F)(F)F)c(F)c1)c1ccc(F)c(C(F)(F)F)n1 (single isomer, unassigned) [Example 56B, (2R)-N-((S or R)-(3-fluoro-4-(trifluoro-methoxy)phenyl)(5-fluoro-6-(trifluoro-methyl)pyridin-2-yl)methyl)-2-methyl-3-oxopiperazine-1-carboxamide]"
16,6.79 nM,"C[C@@H]1C(=O)NCCN1C(=O)NC(c1ccc(OCC(F)(F)F)cc1)c1ccc(F)c(C(F)(F)F)n1 (single isomer, unassigned) [Example 57A, (2R)-N-((R or S)-(5-fluoro-6-(trifluoro-methyl)pyridin-2-yl)(4-(2,2,2-trifluoro-ethoxy)phenyl)methyl)-2-methyl-3-oxopiperazine-1-carboxamide]"
17,125 nM,"C[C@@H]1C(=O)NCCN1C(=O)NC(c1ccc(OCC(F)(F)F)cc1)c1ccc(F)c(C(F)(F)F)n1 (single isomer, unassigned) [Example 57B, (2R)-N-((S or R)-(5-fluoro-6-(trifluoro-methyl)pyridin-2-yl)(4-(2,2,2-trifluoro-ethoxy)phenyl)methyl)-2-methyl-3-oxopiperazine-1-carboxamide]"
18,3.6 nM,"C[C@@H]1C(=O)NCCN1C(=O)NC(c1cccc(OC(F)(F)F)c1)c1ccc(F)c(C(F)(F)F)n1 (single isomer, unassigned) [Example 58A, (2R)-N-((R or S)-(5-fluoro-6-(trifluoro-methyl)pyridin-2-yl)(3-(trifluoromethoxy)phenyl)methyl)-2-methyl-3-oxopiperazine-1-carboxamide]"
19,3.33 nM,"C[C@@H]1C(=O)NCCN1C(=O)NC(c1ccc(OC2CC2)c(F)c1)c1ccc(F)c(C(F)(F)F)n1 (single isomer, unassigned) [Example 59A, (2R)-N-((R or S)-(4-cyclopropoxy-3-fluorophenyl)(5-fluoro-6-(trifluoromethyl)pyridin-2-yl)methyl)-2-methyl-3-oxopiperazine-1-carboxamide]"
20,31.8 nM,"C[C@@H]1C(=O)NCCN1C(=O)NC(c1ccc(OC2CC2)c(F)c1)c1ccc(F)c(C(F)(F)F)n1 (single isomer, unassigned) [Example 59B, (2R)-N-((S or R)-(4-cyclopropoxy-3-fluorophenyl)(5-fluoro-6-(trifluoromethyl)pyridin-2-yl)methyl)-2-methyl-3-oxopiperazine-1-carboxamide]"
21,2.19 nM,"C[C@@H]1C(=O)NCCN1C(=O)NC(c1ccc(F)c(C(F)(F)F)n1)c1ccc(F)c(Cl)c1F (single isomer, unassigned) [Example 60A, (2R)-N-((R or S)-(3-chloro-2,4-difluoro-phenyl)(5-fluoro-6-(trifluoromethyl)pyridin-2-yl)methyl)-2-methyl-3-oxopiperazine-1-carboxamide]"
22,8.29 nM,"C[C@@H]1C(=O)NCCN1C(=O)NC(c1ccc(F)c(C(F)(F)F)n1)c1ccc(F)c(Cl)c1F (single isomer, unassigned) [Example 60B, (2R)-N-((S or R)-(3-chloro-2,4-difluoro-phenyl)(5-fluoro-6-(trifluoromethyl)pyridin-2-yl)methyl)-2-methyl-3-oxopiperazine-1-carboxamide]"
23,1.02 nM,"C[C@@H]1C(=O)NCCN1C(=O)NC(c1ccc(OC(F)(F)F)c(F)c1)c1ccc(C#N)c(C(F)(F)F)n1 (single isomer, unassigned) [Example 61A]"
24,3.83 nM,"C[C@@H]1C(=O)NCCN1C(=O)NC(c1ccc(OC(F)(F)F)c(F)c1)c1ccc(C#N)c(C(F)(F)F)n1 (single isomer, unassigned) [Example 61B]"
25,197 nM,"C[C@@H]1C(=O)NCCN1C(=O)NC(c1cnc(C(F)(F)F)s1)c1ccc(F)c(Cl)c1F (single isomer, unassigned) [Example 62A]"
26,2.45 nM,"C[C@@H]1C(=O)NCCN1C(=O)NC(c1cnc(C(F)(F)F)s1)c1ccc(F)c(Cl)c1F (single isomer, unassigned) [Example 62B]"
27,1.12 nM,"C[C@@H]1C(=O)NCCN1C(=O)NC(c1ccc(OC(F)(F)F)c(Cl)c1)c1cnn(C(F)(F)F)c1 (single isomer, unassigned) [Example 63A, (2R)-N-((R or S)-(3-chloro-4-(trifluoro-methoxy)phenyl)(1-(trifluoromethyl)-1H-pyrazol-4-yl)methyl)-2-methyl-3-oxopiperazine-1-carboxamide]"
